The source of these data is patent US20110178064A1, “SPIRO CONDENSED […] DERIVATIVES FOR USE AS ANTIBACTERIAL” (A[…]&D, priority 2007, published 2011).

One experiment deals with Eco524. As to the kind of experiment: Bacterial susceptibility testing (MIC) in liquid media, 96 well format. In kind it is cell-based. Conditions: Escherichia coli. The text has this:
(§1) Compounds may be tested for antimicrobial activity by susceptibility testing in liquid media in a 96 well format. Compounds may be dissolved in dimethylsulfoxide and tested in 10 doubling dilutions in the susceptibility assays. The organisms used in the assay may be grown overnight on suitable agar media and then suspended in a liquid medium appropriate for the growth of the organism. The suspension may be a 0.5 McFarland and a further 1 in 10 dilution may be advantageously made into the same liquid medium to prepare the final organism suspension in 100 μL. Plates may be incubated under appropriate conditions at 37° C. for 24 hours prior to reading. […] Compounds may be evaluated against organisms such as Gram-positive species, including Staphylococcus aureus, Streptococcus pneumoniae, Streptococcus pyogenes, and Enterococcus faecium; and Gram-negative species including Haemophilus influenzae, Escherichia coli and Moraxella catarrhalis.

The next experiment deals with Hin737. Described as above. Type of experiment: cell-based. Conditions: Haemophilus influenzae.
Description: as §1

Another experiment concerns Hin446. The description is as above. Type of experiment: cell-based. To be noted: Haemophilus influenzae.
Description: as §1

In a further experiment the test system is Hin158. The experiment is described as above. Type of experiment: cell-based. To be noted: Haemophilus influenzae.
Description: as §1

For experiment [1], the target named is Escherichia coli DNA gyrase A/B tetramer (Escherichia coli, UniProt P0AES4+P0AES6). As to the kind of experiment: DNA gyrase supercoiling activity fluorescence polarisation assay. Type of experiment: biochemical. The method, boiled down:
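Gyrase supercoiling reactions quenched with 40 nM 5′-BODIPY-FL oligodeoxynucleotide triplex probe in pH 3.5 NaCl/sodium acetate buffer; fluorescence anisotropy read after 60 min (485/535 nm).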

The subject of another experiment is Mca445. As to the kind of experiment: Bacterial susceptibility testing (MIC) in liquid media, 96 well format. In kind it is cell-based. Conditions: Moraxella catarrhalis.
Description: as §1

In the next experiment the test system is Sau517. The experiment is described as above. Type of experiment: cell-based. To be noted: Staphylococcus aureus.
Description: as §1

The mark [2] stands for this setting: E. coli DNA gyrase supercoiling, asterisk: no IC50 obtained at or below the indicated concentration, read-out: IC50.

Converted amounts (≈) assume the structure as drawn. Where two headings read alike, the source gives them in different places.

Sequence of Escherichia coli DNA gyrase A/B tetramer (P0AES4 whole entry, one chain of several): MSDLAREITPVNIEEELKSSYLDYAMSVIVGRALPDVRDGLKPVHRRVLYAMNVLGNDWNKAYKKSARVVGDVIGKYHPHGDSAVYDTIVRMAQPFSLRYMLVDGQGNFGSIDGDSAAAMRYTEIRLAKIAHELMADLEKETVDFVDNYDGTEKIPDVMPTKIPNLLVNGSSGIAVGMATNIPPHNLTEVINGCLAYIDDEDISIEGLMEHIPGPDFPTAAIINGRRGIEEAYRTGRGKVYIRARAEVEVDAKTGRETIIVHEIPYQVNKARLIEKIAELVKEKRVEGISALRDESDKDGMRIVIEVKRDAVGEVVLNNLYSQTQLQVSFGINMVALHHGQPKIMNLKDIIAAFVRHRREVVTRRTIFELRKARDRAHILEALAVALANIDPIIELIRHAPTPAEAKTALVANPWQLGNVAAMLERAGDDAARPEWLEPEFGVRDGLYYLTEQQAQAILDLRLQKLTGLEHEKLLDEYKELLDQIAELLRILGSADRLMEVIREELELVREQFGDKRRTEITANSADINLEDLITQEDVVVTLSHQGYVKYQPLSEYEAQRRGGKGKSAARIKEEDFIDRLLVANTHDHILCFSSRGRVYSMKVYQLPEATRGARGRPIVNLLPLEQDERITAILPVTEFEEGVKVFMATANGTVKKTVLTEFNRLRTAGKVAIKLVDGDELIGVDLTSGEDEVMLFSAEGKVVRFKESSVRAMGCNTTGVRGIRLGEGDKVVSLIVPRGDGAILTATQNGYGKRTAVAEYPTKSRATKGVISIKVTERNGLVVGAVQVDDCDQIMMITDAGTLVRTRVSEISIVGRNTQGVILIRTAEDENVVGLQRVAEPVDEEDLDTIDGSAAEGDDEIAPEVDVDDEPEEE

Usually IC50 stands for the concentration needed to halve the response being measured. For the molecule `C[C@@H]1CN2c3ncccc3CC3(C(=O)NC(=O)NC3=O)[C@H]2[C@H](C)O1` (relative stereo) [Example 18, (6aS,7S,9R)-rel-7,9-Dimethyl-6a,7,9,10-tetrahydro-1′H,5H-spiro[[1,4]oxazino[4,3-a][1,8]naphthyridine-6,5′-pyrimidine]-2′,4′,6′(3′H)-trione], the MIC against Eco524 was 32 µg/mL (≈ 96.9 µM); with Hin737 it was 32 µg/mL (≈ 96.9 µM); in the experiment with Hin446 it was 16 µg/mL (≈ 48.4 µM); with Hin158, 8 µg/mL (≈ 24.2 µM). This molecule also showed an IC50 in experiment [1] of 51 µM.

Turning to `C[C@@H]1CN2c3ccc(Br)nc3CC3(C(=O)NC(=O)NC3=O)[C@H]2[C@H](C)O1` (relative stereo) [Example 19, (2R,4S,4aS)-rel-8-Bromo-2,4-dimethyl-2,4,4a,6-tetrahydro-1H,1′H-spiro[[1,4]oxazino[4,3-a][1,5]naphthyridine-5,5′-pyrimidine]-2′,4′,6′(3′H)-trione], the MIC is 2 µg/mL (≈ 4.89 µM) against Eco524; 8 µg/mL (≈ 19.5 µM) with Mca445; 16 µg/mL (≈ 39.1 µM) against Hin737; 4 µg/mL (≈ 9.77 µM) in the experiment with Hin446; 32 µg/mL (≈ 78.2 µM) with Sau517; 1 µg/mL (≈ 2.44 µM) with Hin158. For the same molecule, the IC50 in experiment [1] was 11 µM.

Consider `CC1CN2c3ncc(-c4nccs4)cc3CC3(C(=O)NC(=O)NC3=O)C2C(C)O1` [Example 25, (6aS,7S,9R)-rel-7,9-Dimethyl-3-(1,3-thiazol-2-yl)-6a., 7,9,10-tetrahydro-2′H,5H-spiro[1,4-oxazino[4,3-a][1,8]naphthyridine-6,5′-pyrimidine]-2′,4′,6′(1′H,3′H)-trione], for which, in experiment [1] (setting [2]), the 50% inhibitory concentration (IC50) was 9 µM.

For the molecule `CC1CN2c3ncc(-c4ccnn4C)cc3CC3(C(=O)NC(=O)NC3=O)C2C(C)O1` [Example 41, (6aS,7S,9R)-rel-7,9-Dimethyl-3-(1-methyl-1H-pyrazol-5-yl)-6a., 7,9,10-tetrahydro-2′H,5H-spiro[1,4-oxazino[4,3-a][1,8]naphthyridine-6,5′-pyrimidine]-2′,4′,6′(1′H,3′H)-trione], the IC50 in experiment [1] (setting [2]) is 5 µM.

In the case of `CC1CN2c3ncc(-c4cn[nH]c4)cc3CC3(C(=O)NC(=O)NC3=O)C2C(C)O1` [Example 44, (6aS,7S,9R)-rel-7,9-Dimethyl-3-(1H-pyrazol-4-yl)-6a., 7,9,10-tetrahydro-2′H,5H-spiro[1,4-oxazino[4,3-a][1,8]naphthyridine-6,5′-pyrimidine]-2′,4′,6′(1′H,3′H)-trione], the IC50 in experiment [1] (setting [2]) is greater than 10 µM.

`C[C@H]1C[C@@H](C)[C@H]2N(C1)c1cnc(-c3ccn[nH]3)cc1CC21C(=O)NC(=O)NC1=O` [Example 117, (6aR,7R,9S)-7,9-Dimethyl-3-(1H-pyrazol-5-yl)-5,6a,7,8,9,10-hexahydro-1′H-spiro[pyrido[1,2-a][1,7]naphthyridine-6,5′-pyrimidine]-2′,4′,6′(3′H)-trione]: inhibition in experiment [1] was half-maximal at 1 µM (IC50).

For “(2R,4S,4aS)-rel-2,4-Dimethyl-8-(1H-pyrazol-4-yl)-1,2,4,4a-tetrahydro-2′H,6H-spiro[1,4-oxazino[4,3-a][1,5]naphthyridine-5,5′-pyrimidine]-2′,4′,6′(1′H,3′H)-trione [Example 72]”, the IC50 in experiment [1] (setting [2]) is greater than 5 µM.

With “(6aS,7S,9R)-rel-3-(6-Methoxypyrazin-2-yl)-7,9-dimethyl-6a,7,9,10-tetrahydro-2′H,5H-spiro[1,4-oxazino[4,3-a][1,7]naphthyridine-6,5′-pyrimidine]-2′,4′,6′(1′H,3′H)-trione [Example 105]”, in experiment [1] (setting [2]), the IC50 was 19 µM.
